From PubChem BioAssay (NCI)
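Method: 48-hour compound exposure of cells in 96-well plates, five concentrations, linear interpolation of endpoints. TGI: concentration producing complete growth inhibition.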

Legend:
Assay in all cases: NCI anticancer screen, dose series, 48 h
[1] = system: 786-0 renal
[2] = system: A498 renal
[3] = system: A549 NSCLC
[4] = system: ACHN renal
[5] = system: BT-549 breast
[6] = system: CAKI-1 renal
[7] = system: CCRF-CEM leukemia
[8] = system: COLO 205 colon
[9] = system: DLD-1 colon
[10] = system: DMS 114 small cell lung
[11] = system: DU-145 prostate
[12] = system: EKVX NSCLC
[13] = system: HCC-2998 colon
[14] = system: HCT-116 colon
[15] = system: HCT-15 colon
[16] = system: HL-60(TB) leukemia
[17] = system: HOP-62 NSCLC
[18] = system: HOP-92 NSCLC
[19] = system: HS 578T breast
[20] = system: HT29 colon
[21] = system: IGROV1 ovarian
[22] = system: K-562 leukemia
[23] = system: KM12 colon
[24] = system: KM20L2 colon
[25] = system: LOX IMVI melanoma
[26] = system: LXFL 529 NSCLC
[27] = system: M14 melanoma
[28] = system: M19-MEL melanoma
[29] = system: MALME-3M melanoma
[30] = system: MCF7 breast
[31] = system: MDA-MB-231 breast
[32] = system: MDA-MB-435
[33] = system: MDA-N
[34] = system: MOLT-4 leukemia
[35] = system: NCI-H226 lung
[36] = system: NCI-H23 lung
[37] = system: NCI-H460 lung
[38] = system: NCI-H522 lung
[39] = system: NCI/ADR-RES ovarian
[40] = system: OVCAR-3 ovarian
[41] = system: OVCAR-4 ovarian
[42] = system: OVCAR-5 ovarian
[43] = system: OVCAR-8 ovarian
[44] = system: PC-3 prostate
[45] = system: RPMI-8226 leukemia
[46] = system: RXF 393 renal
[47] = system: RXF-631 renal
[48] = system: SF-268 CNS
[49] = system: SF-295 CNS
[50] = system: SF-539 CNS
[51] = system: SK-MEL-2 melanoma
[52] = system: SK-MEL-28 melanoma
[53] = system: SK-MEL-5 melanoma
[54] = system: SK-OV-3 ovarian
[55] = system: SN12C renal
[56] = system: SNB-19 CNS
[57] = system: SNB-75 CNS
[58] = system: SNB-78 CNS
[59] = system: SR leukemia
[60] = system: SW-620 colon
[61] = system: T-47D breast
[62] = system: TK-10 renal
[63] = system: U251 CNS
[64] = system: UACC-257 melanoma
[65] = system: UACC-62 melanoma
[66] = system: UO-31 renal
[67] = system: XF 498 CNS

## Nc1ccc(C(=O)N/C(=C\c2cccc([N+](=O)[O-])c2)c2nc3[nH]c(=S)[nH]c(=O)c3[nH]2)cc1
[1]
  TGI: > 93.1 µM
[2]
  TGI: > 100 µM
[3]
  TGI: > 100 µM
[4]
  TGI: > 100 µM
[5]
  TGI: > 100 µM
[6]
  TGI: > 100 µM
[7]
  TGI: > 100 µM
[8]
  TGI: > 100 µM
[9]
  TGI: > 100 µM
[10]
  TGI: > 100 µM
[11]
  TGI: > 100 µM
[12]
  TGI: > 100 µM
[13]
  TGI: > 100 µM
[14]
  TGI: > 100 µM
[15]
  TGI: > 100 µM
[16]
  TGI: > 100 µM
[17]
  TGI: 45.6 µM
[18]
  TGI: 64.9 µM
[19]
  TGI: > 91.2 µM
[20]
  TGI: > 100 µM
[21]
  TGI: > 100 µM
[22]
  TGI: > 100 µM
[23]
  TGI: > 100 µM
[24]
  TGI: > 100 µM
[25]
  TGI: > 100 µM
[26]
  TGI: > 100 µM
[27]
  TGI: > 100 µM
[28]
  TGI: > 100 µM
[29]
  TGI: > 100 µM
[30]
  TGI: > 100 µM
[31]
  TGI: > 94.5 µM
[32]
  TGI: > 100 µM
[33]
  TGI: > 100 µM
[34]
  TGI: > 56.2 µM
[35]
  TGI: > 96.7 µM
[36]
  TGI: > 100 µM
[37]
  TGI: > 100 µM
[38]
  TGI: > 100 µM
[39]
  TGI: > 100 µM
[40]
  TGI: > 100 µM
[41]
  TGI: > 100 µM
[42]
  TGI: > 100 µM
[43]
  TGI: > 90.3 µM
[44]
  TGI: > 100 µM
[45]
  TGI: > 100 µM
[46]
  TGI: 55.9 µM
[47]
  TGI: > 100 µM
[48]
  TGI: > 100 µM
[49]
  TGI: > 96.7 µM
[50]
  TGI: 67 µM
[51]
  TGI: > 100 µM
[52]
  TGI: > 100 µM
[53]
  TGI: > 100 µM
[54]
  TGI: 56.2 µM
[55]
  TGI: > 100 µM
[56]
  TGI: > 93.1 µM
[57]
  TGI: 32.1 µM
[58]
  TGI: > 100 µM
[59]
  TGI: > 100 µM
[60]
  TGI: > 100 µM
[61]
  TGI: > 89.5 µM
[62]
  TGI: > 100 µM
[63]
  TGI: > 85.6 µM
[64]
  TGI: > 100 µM
[65]
  TGI: > 56.2 µM
[66]
  TGI: > 100 µM
[67]
  TGI: 34.3 µM
